{"source": "patent US20100041089A1", "about": "“IMPROVED METHOD FOR DETECTING CHEMICAL […]” (priority 2006, published 2010)", "tested_on": "yeast genes (expressed mRNA)", "experiment": "DNA chip measurement of expressed mRNA of yeast genes after culture with a toxic chemical substance", "format": "cell-based, Saccharomyces cerevisiae S288C", "description": "Yeast (Saccharomyces cerevisiae S288C (a SUC2mal mel gap2 CUP1)) were cultured at 25° C. on YPD medium (yeast extract 1%, polypeptone 2%, glucose 2%). One of toxic chemical substances was added to the cell at logarithmic growth phase, and the cell was further cultured for two hours. Cell was cultured without any chemical substance in the same condition, and was used as a control. Concentrations of the chemical substances were defined to inhibit the growth of the yeast but not lead to death.\nAfter the completion of cultivation, the culture was centrifuged to collect the cells. To the cells, sodium acetate buffer (50 mM sodium acetate, 10 mM EDTA, 1% SDS) was added, and the mixture was shaken at 65° C. for five minutes, followed by returning to room temperature, and obtaining the supernatant, which procedure was repeated two times. To the supernatant, ½ amount of a solution of phenol/chloroform (1:1) was added, and the mixture was centrifuged to give a supernatant, an equal amount of chloroform was added, and the mixture was centrifuged to give a supernatant. To the supernatant, an equal amount of isopropanol containing 0.3 M sodium acetate was added, and the mixture was allowed to stand at room temperature for 30 minutes, after which the mixture was centrifuged to give sediment of the whole RNAs. Seventy % ethanol was added to the sediment, and the mixture was again centrifuged to give sediment, which was then dried and dissolved in water. mRNA was isolated from the whole RNAs as followings. In view of the fact that a poly A chain is attached to the 3′ terminus of mRNA, a polynucleotide having a poly T structure which was immobilized on the surface of latex beads was used to trap the mRNA, and then the mRNA was washed and eluted with spine column (Oligotex-dT30<Super>mRNA Purification Kit, Takara). Reverse transcription of the mRNA was conducted with a reverse transcriptase (Super Script II Reverse Transcriptase; catalogue No. 18064-014, GibcoBRL) using fluorescence-labeled nucleotides to give cDNAs that were introduced with Cy3-dUTP or Cy5-dUTP during the reverse transcription.\nThe labeled cDNAs were dissolved in TE buffer (10 mM Tris-HCl/1 mM EDTA, pH 8.0), and the solution was dropped on the DNA chip containing the whole genes of yeast (DNA Chip Research Inc. Japan) so that the cDNAs were hybridized on the DNA chip at 65° C. for over 12 hours. The fluoresces intensity of the DNA chip was read with a scanner, and the ratio relative to the fluorescence intensity resulting from the absence of chemical substance was estimated as the following, which is shown in Tables 1 to 9.\nIn the Tables, “Intensity” indicated in the rightmost column is a value of the level of expressed mRNA of each gene in control cells as divided by the average level of the expressions of the whole genes. A gene of which mRNA level is lower in control, and is higher in cases of addition of chemical substance, is especially useful in the detection of toxic substances.\nHere, when a ratio of an amount of mRNA expressed in the presence of the chemical substance to an amount of mRNA expressed in the absence of the chemical substance is two or more, then it is considered significant.", "data": [{"smiles": "N#Cc1c(Cl)c(Cl)c(Cl)c(C#N)c1Cl", "note": "[(9), 2,4,5,6-Tetrachloro-1,3-benzenedicarbonitrile]", "values": [{"measurement": "The level of expressed mRNA in the presence of chemical substance/The level of expressed mRNA in the absence of chemical substance", "setting": "yeast gene YAL034C, cultured two hours with substance", "result": 3.0}, {"measurement": "The level of expressed mRNA in the presence of chemical substance/The level of expressed mRNA in the absence of chemical substance", "setting": "yeast gene YAL053W, cultured two hours with substance", "result": 1.4}, {"measurement": "The level of expressed mRNA in the presence of chemical substance/The level of expressed mRNA in the absence of chemical substance", "setting": "yeast gene YAR027W, cultured two hours with substance", "result": 2.3}, {"measurement": "The level of expressed mRNA in the presence of chemical substance/The level of expressed mRNA in the absence of chemical substance", "setting": "yeast gene YAR028W, cultured two hours with substance", "result": 1.0}, {"measurement": "The level of expressed mRNA in the presence of chemical substance/The level of expressed mRNA in the absence of chemical substance", "setting": "yeast gene YBL048W, cultured two hours with substance", "result": 7.2}, {"measurement": "The level of expressed mRNA in the presence of chemical substance/The level of expressed mRNA in the absence of chemical substance", "setting": "yeast gene YBL065W, cultured two hours with substance", "result": 20.8}, {"measurement": "The level of expressed mRNA in the presence of chemical substance/The level of expressed mRNA in the absence of chemical substance", "setting": "yeast gene YBL075C (stress protein genes)", "result": 60.3}, {"measurement": "The level of expressed mRNA in the presence of chemical substance/The level of expressed mRNA in the absence of chemical substance", "setting": "yeast gene YBL107C, cultured two hours with substance", "result": 1.0}, {"measurement": "The level of expressed mRNA in the presence of chemical substance/The level of expressed mRNA in the absence of chemical substance", "setting": "yeast gene YBR008C (transport facilitation protein gene)", "result": 54.6}, {"measurement": "The level of expressed mRNA in the presence of chemical substance/The level of expressed mRNA in the absence of chemical substance", "setting": "yeast gene YBR072W (stress protein genes)", "result": 29.4}, {"measurement": "The level of expressed mRNA in the presence of chemical substance/The level of expressed mRNA in the absence of chemical substance", "setting": "yeast gene YBR096W, cultured two hours with the chemical substance", "result": 1.2}, {"measurement": "The level of expressed mRNA in the presence of chemical substance/The level of expressed mRNA in the absence of chemical substance", "setting": "yeast gene YBR256C", "result": 18.1}, {"measurement": "The level of expressed mRNA in the presence of chemical substance/The level of expressed mRNA in the absence of chemical substance", "setting": "yeast gene YCR082W, cultured two hours with substance", "result": 4.3}, {"measurement": "The level of expressed mRNA in the presence of chemical substance/The level of expressed mRNA in the absence of chemical substance", "setting": "yeast gene YCR107W, cultured for two hours with substance", "result": 196.6}, {"measurement": "The level of expressed mRNA in the presence of chemical substance/The level of expressed mRNA in the absence of chemical substance", "setting": "yeast gene YDL059C, DNA repair protein genes, cultured two hours with substance", "result": 10.5}, {"measurement": "The level of expressed mRNA in the presence of chemical substance/The level of expressed mRNA in the absence of chemical substance", "setting": "yeast gene YDL072C, cultured two hours with substance", "result": 1.1}, {"measurement": "The level of expressed mRNA in the presence of chemical substance/The level of expressed mRNA in the absence of chemical substance", "setting": "yeast gene YDL204W, cultured two hours with substance", "result": 2.3}, {"measurement": "The level of expressed mRNA in the presence of chemical substance/The level of expressed mRNA in the absence of chemical substance", "setting": "yeast gene YDL218W, cultured two hours with substance", "result": 72.5}, {"measurement": "The level of expressed mRNA in the presence of chemical substance/The level of expressed mRNA in the absence of chemical substance", "setting": "yeast gene YDL222C, cultured two hours with substance", "result": 1.9}, {"measurement": "The level of expressed mRNA in the presence of chemical substance/The level of expressed mRNA in the absence of chemical substance", "setting": "yeast gene YDL234C, cultured two hours with substance", "result": 4.6}, {"measurement": "The level of expressed mRNA in the presence of chemical substance/The level of expressed mRNA in the absence of chemical substance", "setting": "yeast gene YDL243C, cultured for two hours with substance", "result": 64.2}, {"measurement": "The level of expressed mRNA in the presence of chemical substance/The level of expressed mRNA in the absence of chemical substance", "setting": "yeast gene YDR018C, cultured two hours with substance", "result": 2.3}, {"measurement": "The level of expressed mRNA in the presence of chemical substance/The level of expressed mRNA in the absence of chemical substance", "setting": "yeast gene YDR031W, cultured two hours with substance", "result": 1.1}, {"measurement": "The level of expressed mRNA in the presence of chemical substance/The level of expressed mRNA in the absence of chemical substance", "setting": "yeast gene YDR070C, cultured two hours with substance", "result": 13.9}, {"measurement": "The level of expressed mRNA in the presence of chemical substance/The level of expressed mRNA in the absence of chemical substance", "setting": "yeast gene YDR194C, mitochondria-located protein gene, cultured two hours with substance", "result": 2.8}, {"measurement": "The level of expressed mRNA in the presence of chemical substance/The level of expressed mRNA in the absence of chemical substance", "setting": "yeast gene YDR214W, cultured two hours with substance", "result": 5.5}, {"measurement": "The level of expressed mRNA in the presence of chemical substance/The level of expressed mRNA in the absence of chemical substance", "setting": "yeast gene YDR253C", "result": 14.8}, {"measurement": "The level of expressed mRNA in the presence of chemical substance/The level of expressed mRNA in the absence of chemical substance", "setting": "yeast gene YDR330W, cultured two hours with substance", "result": 3.9}, {"measurement": "The level of expressed mRNA in the presence of chemical substance/The level of expressed mRNA in the absence of chemical substance", "setting": "yeast gene YDR340W, cultured two hours with substance", "result": 1.4}, {"measurement": "The level of expressed mRNA in the presence of chemical substance/The level of expressed mRNA in the absence of chemical substance", "setting": "yeast gene YDR350C, cultured two hours with substance", "result": 2.8}, {"measurement": "The level of expressed mRNA in the presence of chemical substance/The level of expressed mRNA in the absence of chemical substance", "setting": "yeast gene YDR374C, cultured two hours with substance", "result": 10.4}, {"measurement": "The level of expressed mRNA in the presence of chemical substance/The level of expressed mRNA in the absence of chemical substance", "setting": "yeast gene YDR391C, cultured two hours with substance", "result": 1.5}, {"measurement": "The level of expressed mRNA in the presence of chemical substance/The level of expressed mRNA in the absence of chemical substance", "setting": "yeast gene YDR411C, cultured two hours with substance", "result": 0.7}, {"measurement": "The level of expressed mRNA in the presence of chemical substance/The level of expressed mRNA in the absence of chemical substance", "setting": "yeast gene YDR486C, cultured two hours with substance", "result": 2.5}, {"measurement": "The level of expressed mRNA in the presence of chemical substance/The level of expressed mRNA in the absence of chemical substance", "setting": "yeast gene YDR494W, cultured two hours with substance", "result": 1.2}, {"measurement": "The level of expressed mRNA in the presence of chemical substance/The level of expressed mRNA in the absence of chemical substance", "setting": "yeast gene YDR511W, cultured two hours with substance", "result": 2.5}, {"measurement": "The level of expressed mRNA in the presence of chemical substance/The level of expressed mRNA in the absence of chemical substance", "setting": "yeast gene YDR513W", "result": 4.6}, {"measurement": "The level of expressed mRNA in the presence of chemical substance/The level of expressed mRNA in the absence of chemical substance", "setting": "yeast gene YDR545W, cultured two hours with substance", "result": 1.8}, {"measurement": "The level of expressed mRNA in the presence of chemical substance/The level of expressed mRNA in the absence of chemical substance", "setting": "yeast gene YEL001C, cultured two hours with substance", "result": 2.0}, {"measurement": "The level of expressed mRNA in the presence of chemical substance/The level of expressed mRNA in the absence of chemical substance", "setting": "yeast gene YER004W, cultured two hours with substance", "result": 4.5}, {"measurement": "The level of expressed mRNA in the presence of chemical substance/The level of expressed mRNA in the absence of chemical substance", "setting": "yeast gene YER035W, cultured two hours with substance", "result": 1.2}, {"measurement": "The level of expressed mRNA in the presence of chemical substance/The level of expressed mRNA in the absence of chemical substance", "setting": "yeast gene YER038C, cultured two hours with substance", "result": 0.7}, {"measurement": "The level of expressed mRNA in the presence of chemical substance/The level of expressed mRNA in the absence of chemical substance", "setting": "yeast gene YER079W, cultured two hours with substance", "result": 5.3}, {"measurement": "The level of expressed mRNA in the presence of chemical substance/The level of expressed mRNA in the absence of chemical substance", "setting": "yeast gene YER096W, metabolism protein genes", "result": 7.5}, {"measurement": "The level of expressed mRNA in the presence of chemical substance/The level of expressed mRNA in the absence of chemical substance", "setting": "yeast gene YER103W (stress protein genes)", "result": 20.3}, {"measurement": "The level of expressed mRNA in the presence of chemical substance/The level of expressed mRNA in the absence of chemical substance", "setting": "yeast gene YER106W, cultured two hours with substance", "result": 0.4}, {"measurement": "The level of expressed mRNA in the presence of chemical substance/The level of expressed mRNA in the absence of chemical substance", "setting": "yeast gene YER158C, cultured two hours with substance", "result": 2.1}, {"measurement": "The level of expressed mRNA in the presence of chemical substance/The level of expressed mRNA in the absence of chemical substance", "setting": "yeast gene YER163C, cultured two hours with substance", "result": 5.4}, {"measurement": "The level of expressed mRNA in the presence of chemical substance/The level of expressed mRNA in the absence of chemical substance", "setting": "yeast gene YER175C, cultured two hours with substance", "result": 1.9}, {"measurement": "The level of expressed mRNA in the presence of chemical substance/The level of expressed mRNA in the absence of chemical substance", "setting": "yeast gene YFL006W, cultured two hours with substance", "result": 3.2}]}]}
